Where “and” joins values, the source holds several entries; their conditions need not be identical. Equal values may be shown once. Read-outs that look alike come from different tables or passages of the source.
How the values were obtained:
[1] = test system: KPC 4662 pancreatic tumor; conditions: average of 4 mice
Experimental: Allograft Pancreatic Tumor. KPC 4662 pancreatic tumor cells (5e5) were injected in a 1:1 ratio with PBS:Matrigel(Matrigel Matrix 354234, lot 7205011) into the subcutaneous dorsal flanks of CD57B16 mice.
IVIS imaging (Camera #11219, DW434) was performed right before 100 ul of 50 mg/ml DBCO-cy7 retro orbital injections and imaged 24 hours afterwards when most of the unbound DBCO-cy was cleared from systemic circulation. For the refill dose experiments 9-week-old albino c57b16's from Envigo were used. For all other tumor refills, 9-week-old regular c57s from Envigo were used.

[2] = CD1 mice, one month after intradermal injection of 50 μL
Experimental: H&E slides of mouse skin and tissues from 8 mice were analyzed to determine local or distal effects of an injected depot material. All tissues were evaluated by light microscopy and were graded as: “-”=no changes observed in this tissue for any mouse; “0”=a particular change not present; “1”=change is present at slight/minimal severity; “2”=mild severity, “3”=moderate severity; “4” marked severity; “5”=severe. A grade of 1 represents the minimal detectable change and a 5 represents a change judged to be essentially as severe as possible.

[3] = test system: KPC 4662 tumors; conditions: pancreatic tumor after a dose of DBCO-cy7
Experimental: 8 mice were similarly injected with KPC 4662 tumors and allowed to grow over a week until injection of sNHS(N=4) or PBS(N=4). Injection and imaging was performed as described above on the IVIS before and 24 hours after DBCO-cy7 IV injection. Tumors were then explanted imaged to compare to a linear regression alginate gels ROI's that contained the same dose injected IV to obtain a percentage of cy7 captured at the tumor site.
The study employed three tumors injected with a “Click Target” and one control.

[4] = Brain refills: capture of i.v. DBCO-Cy7 at intracranial azide-sNHS depot; format: in vivo; conditions: azide-sNHS vs control mice, 24 hours after i.v. administration
Experimental: Representative images of azide-sNHS and control mice after 24 hours after i.v. administration of DBCO-Cy7. The brain was removed and imaged alone.
Quantitation of intracranial ROI radiant efficiency was measured 24 hours after i.v. DBCO-Cy7 administration. Samples show mean+/−SEM. *=p<0.05, **=p<0.01 by Student's T-test.
Brain Refills. For anesthesia, 1-5% isoflurane was administered before procedures as well as continuously through the stereotaxic setup, and 0.5% lidocaine HCL administered subcutaneous under the incision site prior to surgery. 10-week-old CD1 mice were mounted on a kopf stereotaxic head stage using ear bars and a 5 μl Hamilton syringe placed in needle fixture. For surgery, the area to be incised on the head was shaved and washed with 70% alcohol. An incision with a #10 blade was made from posterior to anterior (start of skull to between eyes) and skin pulled away from incision using sterile Q-tips to expose the skull. The syringe needle was adjusted so the tip was at Bregma, position of the stereotaxic device recorded, and then moved to the desired calculated position where a marking will be made with a surgical marker. The experimental coordinates were −2.5M/L, −1A/P, −3D/V. A small hand drill was then used to make a 1-2 mm size hole in the skull for the injection needle. […] Once complete, the mouse skin was joined by VetBond skin glue and monitored post-surgery. […]

[5] = Intradermal tetrazine-sNHS depot, IVIS imaging of TCO-cy5 capture; format: in vivo, mice; conditions: for Average Radiant Efficiency: average of 4 mice; for Total Radiant Efficiency Measured within Regions of Interest (ROI): before-injection value subtracted, individual mouse
Experimental: 50 μL of 0.05M methyl tetrazine-sNHS ester was dissolved in sterile PBS, and injected intradermally into the dorsal flanks of mice CD1 Charles river mice. The first four images in FIG. 8 are pictures of the four mice treated with the “Click-Target” (tetrazine-sNHS) and the four control mice injected with PBS. The last 4 images in FIG. 8 show the fluorescence observed 24 hours after injection of the “Click Prodrug” (TCO-cy5). The IVIS was adjusted for this cy5 fluorophore. […] This experiment was also performed at 1 week with similar results
The total increase in fluorescence after the TCO-cy5 injection (at 1 day) over the intradermal injection ROI's (total radiant efficiency measurement) subtracting the before tco-cy5 image injection value are included below.
The total increase in fluorescence after the TCO-cy5 injection (at 1 week) over the intradermal injection ROI's (total radiant efficiency measurement) subtracting the before tco-cy5 image injection value are included below.

## [N-]=[N+]=NCCC(=O)ON1C(=O)CC(S(=O)(=O)O)C1=O (stereo not shown) [Azide sNHS, 3-Azidopropionic Acid Sulfo-NHS ester]
[1]; 24 hours after first administration of DBCO-cy7
  Average Radiant Efficiency: 9.21 × 10^9
[1]; 24 hours after second administration of DBCO-cy7
  Average Radiant Efficiency: 7.26 × 10^9
[1]; 24 hours after third administration of DBCO-cy7
  Average Radiant Efficiency: 4.12 × 10^9
[2]
  histologic changes (H&E) versus PBS group: no difference between the two groups
[3]
  radiance relative to control (ROI measurements): four times greater

## C[N+]1=C(C=CC2=CC(=CC=C3N(CCCCCC(=O)NCCCCCC(=O)N4Cc5ccccc5C#Cc5ccccc54)c4ccccc4C3(C)C)CCC2)C(C)(C)c2ccccc21.F[P-](F)(F)(F)(F)F [DBCO-Cy7, Cyanine7 DBCO]
[4]
  capture in the brain: click-specific capture

## methyl tetrazine-sNHS ester
[5]; TCO-cy5 injection at 1 week
  Average Radiant Efficiency: 1.25 × 10^9
[5]; TCO-cy5 injection at 1 day
  Average Radiant Efficiency: 2.72 × 10^9
[5]; increase in fluorescence after TCO-cy5 injection at 1 week
  Total Radiant Efficiency Measured within Regions of Interest (ROI): 1.12 × 10^9 and 1.57 × 10^9 and 1.31 × 10^9 and 1.01 × 10^9
[5]; increase in fluorescence after TCO-cy5 injection at 1 day
  Total Radiant Efficiency Measured within Regions of Interest (ROI): 3.64 × 10^9 and 2.40 × 10^9 and 1.92 × 10^9 and 2.90 × 10^9
